The source of these data is patent US11180475B2, “Crystal form I of a 5-aminopyrazole carboxamide compound as BTK inhibitor” (SinoMab BioScience Limited, priority 2017, dated 2021).

One data set has as its system normal human B cells. As to the kind of experiment: B cell inhibition assay (CD69, flow cytometry). It counts as cell-based. The following applies: 1 hour exposure, washed off, IgM F(ab')2 stimulation 18 hours, read-out: IC50, inhibitory activity on B cells. Here is the method: Temporary exposure to a BTK inhibitor in vitro is sufficient to inhibit B cell activation in normal human B cells.
B cells were obtained by purification from healthy donor blood through negative selection using the RosetteSep human B Cell Enrichment Mix. Cells were plated in a growth medium (10% RPMI+10% fetal bovine serum) and the inhibitor was added at specified concentrations. After incubation at 37° C. for 1 hour, the cells were washed three times, and each wash was used for 8-fold dilution in the growth medium. The cells were then stimulated with 10 μg/mL IgM F(ab′)2 at 37° C. for 18 hours. Cells were subsequently stained with an anti-CD69-PE antibody and analyzed by flow cytometry using standard conditions.
In general terms: In flow cytometry, cells or beads pass a laser one at a time.

For data set [1], the system named is B cells in human whole blood. As to the kind of experiment: Inhibition assay on human whole blood B cells (CD69). It is filed as cell-based. The following applies: B-cell, anti-human IgM F(ab')2 stimulation 20 hours, read-out: IC50, inhibitory activity on B cells in human whole blood. Here is the method:
Human whole blood (hWB) was obtained from healthy volunteers and blood was collected by venipuncture into a heparin sodium-anticoagulant Vacutainer tube. Test compounds were diluted 10 times in PBS to the required initial drug concentration), followed by three-fold serial dilutions with 10% DMSO in PBS to obtain a 9-point dose response curve. 5.5 μL of each diluted compound was added to the aiil 96-well V-bottom plate in duplicate; 5.5 μL of 10% DMSO in PBS was added to control and non-stimulated wells. Human whole blood (100 μL) was added to each well, and after mixing, the plates were incubated for 30 minutes at 37° C. and in 5% CO2, 100% humidity. An anti-human IgM F(ab′)2 (Southern Biotech) (10 μL of 500 μg/mL solution, 50 μg/mL final concentration) was added to each well (except for non-stimulated wells) with vortexing, and the plate was further incubated for another 20 hours. After 20-hour incubation, samples were incubated with 20 μL of fluorescent probe-labeled APC mouse anti-human CD69 (BD Pharmingen) for 30 minutes at 37° C., 5% CO2, 100% humidity. Induced controls, unstained, and single-stained samples were included for compensation and initial voltage settings. […] Results were initially analyzed using FACS analysis software (Flow Jo). The IC50 values were then calculated using XLfit v3, Equation 201.

The subject of data set [2] is diffuse large B-cell lymphoma cell line TMD-8. As to the kind of experiment: Pharmacodynamic assay, TMD-8 xenograft. As to conditions: NOD.SCID mice, p.o. daily for 21 days. It counts as in vivo. Here is the method:
Severe immunodeficiency NOD.SCID mice were purchased from Beijing Vital River Laboratory Animal Technology Co., Ltd., and were housed in SPF grade animal room. After TMD-8 cells were cultured to the sufficient amount, the cells were collected by centrifugation and washed twice with PBS. Finally, the cells were resuspended in serum-free RPMI 1640 medium and Matrigel (1:1 v/v). 0.2 ml of cell suspension was injected subcutaneously on the right flank of each mouse using 1 ml syringe and 25G syringe needle. The tumor size was measured with a caliper after about one week post injection. The tumor volume was calculated according to the following formula: tumor volume=(length×width^2)/2. When the tumor volume reached about 100-200 mm^3, the mice were grouped and p.o. administered daily for 21 days.

Another data set deals with T cells. As to the kind of experiment: T cell inhibition assay (CD69, flow cytometry). The following applies: Homo sapiens, 1 hour exposure, washed, anti-CD3/CD28 beads 18 hours, read-out: IC50, inhibitory activity on T cells. It counts as cell-based. The method, then:
T cells were obtained by purification of healthy donor blood through negative selections using the RosetteSep Human T Cell Enrichment Mix. Cells were plated in a growth medium (10% RPMI+10% fetal bovine serum) and the inhibitor was added at specified concentrations. After incubating for 1 hour at 37° C., the cells were washed three times, and each wash was used for 10-fold dilution in the growth medium. The cells were then stimulated with anti-CD3/CD28 coated beads (bead/cell ratio 1:1) for 18 hours at 37° C. Cells were subsequently stained with an anti-CD69-PE antibody and analyzed by flow cytometry using standard conditions. According to the above experimental methods, compound (R)-5-amino-3-(4-((5-chloropyridin-2-yl)oxy)phenyl)-1-(4-cyano-4-azaspiro[2.5]oct-6-yl)-1H-pyrazole-4-carboxamide (I) has very low or no inhibitory activity on T cells, with an IC50 values higher than 4000 nM.

The nature of a further data set: Pharmacokinetics in rats. It is filed as in vivo. As to conditions: rat, plasma, oral; male SD rats, p.o. 10 mg/kg vs i.v. 2 mg/kg. The method, then: 1. Male SD rats (HFK) were acclimatized in the laboratory for 7 days after arrival.
2. […], 3 animals in each group. One group was dosed by oral gavage (p.o.), and the other group was dosed by tail vein injection (i.v.). Rats in the p.o. group were fasted overnight before drug administration.
3. After drug administration, blood samples were collected from the rats via the posterior orbital venous plexus approach at the following time points: I.V.: (before drug administration), 0.08 hours, 0.25 hours, 0.5 hours, 1 hour, 2 hours, 4 hours, 8 hours, 24 hours; P.O.: 0.08 hour, 0.25 hour, 0.5 hour, 1 hour, 2 hours, 4 hours, 8 hours, 24 hours. About 300 μl of blood were collected at each collection time point.
4. The collected blood samples were centrifuged at 12000 rpm for 5 minutes at 4° C., and then the upper plasma samples were collected and stored in a refrigerator at −20° C.
6. […]
The pharmacokinetic parameters were calculated using the pharmacokinetic professional software WinNonlin [Model: Phoenix™ WinNonlin® 6.1; Manufacturer: Pharsight Corporation]. […]

In another data set the target is Recombinant Btk (Homo sapiens, UniProt Q06187). As to the kind of experiment: Kinase activity (BTK) inhibition assay, TR-FRET. It is filed as biochemical. As to conditions: read-out: IC50, inhibitory effect on BTK kinase activity. The method, then:
The inhibitory effects of compound (R)-5-amino-3-(4-((5-chloropyridin-2-yl)oxy)phenyl)-1-(4-cyano-4-azaspiro[2.5]oct-6-yl)-1H-pyrazole-4-carboxamide (I) on BTK kinase activity were tested in an assay based on a time resolved fluorescence resonance energy transfer (TR-FRET) method. Recombinant Btk was pre-incubated with the compound disclosed herein in an assay buffer containing 50 mM Tris pH 7.4, 10 mM MgCl2, 2 mM MnCl2, 0.1 mM EDTA, 1 mM DTT, 20 nM SEB, 0.1% BSA, 0.005% tween-20 at room temperature for 1 hour. The reaction was initiated by the addition of ATP (at the ATP Km concentration) and the peptide substrate (Biotin-[…]-NH2). After incubation at room temperature for 1 hour, an equal volume of stop solution containing 50 mM HEPES pH 7.0, 800 mM KF, 20 mM EDTA, 0.1% BSA, p-Tyr66 antibody linked with Eu cryptate and streptavidin-labeled XL665 was added to stop the reaction. The plate was incubated at room temperature for an additional hour and then the TR-FRET signal was read on a BMG PHERAstar FS instrument (ex337 nm, em 620 nm/665 nm). Based on the ratio of the signal of fluorescence at 615 nm to 665 nm, the residual enzyme activity was calculated with an increased compound concentration. IC50 of each compound was obtained by fitting the data to the four-parameter equation of Graphpad Prism software.
For orientation: In TR-FRET formats the signal depends on donor and acceptor labels being close together.

Data set [3] relates to five CYP450 enzymes in human liver microsomes. As to the kind of experiment: Inhibition of CYP enzymes, cocktail probe substrates. It counts as in vitro ADME. The following applies: CYP1A2, CYP2D6, CYP2C9, CYP2C19, CYP3A4. The method, then: METHOD: This experiment simultaneously determined the inhibitory effects of a compound on five CYP450 enzymes in human liver microsomes using the cocktail probe substrates approach. The human microsomes were from BD Gentest.
The reaction was carried out in 100 mM of phosphate buffer, with a total volume of 200 μL. The concentration of microsomes in the reaction system was 0.25 mg/mL, and the concentration of the test compound was 20 μM, 6.67 μM, 2.22 μM, 0.74 μM, and 0.25 μM. The specific probe substrates and concentration were phenacetin (CYP1A2) 40 μM, dextromethorphan (CYP2D6) 5 μM, diclofenac (CYP2C9) 10 μM, S-mephenytoin (CYP2C19) 40 μM, testosterone (CYP3A4) 80 μM, respectively. The mixture was pre-incubated in a 37° C. thermostatic shaker for 5 minutes, and the NADPH-generating system (containing 1.3 mM NADP+, 3.3 mM glucose 6-phosphate, […] glucose 6-phosphate dehydrogenase, 3.3 mM MgCl2) was added to start the reaction. After incubation for 45 minutes, the reaction was stopped by adding an equal volume of acetonitrile. The tube was vortexed and centrifuged at 13,000 rpm. The resulting supernatant was subjected to LC-MS-MS to determine the amount of produced metabolites. […] The final result of this experiment is the calculated half inhibitory concentration IC50 value.

Data set [4] can be described thus: Stability study in liver microsomes. It counts as in vitro ADME, human, dog, rat, and mouse. As to conditions: 60 minutes incubation, 37° C., liver microsomes of various species. The method, then:
1. Compound (R)-5-amino-3-(4-((5-chloropyridin-2-yl)oxy)phenyl)-1-(4-cyano-4-azaspiro[2.5]oct-6-yl)-1H-pyrazole-4-carboxamide (I) was dissolved in acetonitrile to prepare a stock solution having a concentration of 0.5 mM.
2. 2 μL of stock solution was added to a 1.5 ml centrifuge tube, and then 148 μL of phosphate buffer (100 mM, pH 7.4) and 10 μL of liver microsome suspension (the protein concentration was 20 mg/ml) [BD Gentest] were added. The liver microsomes were derived from the species of human, dog, rat, and mouse; The control group was added with 158 μL of phosphate buffer (100 mM, pH 7.4).
3. The mixture obtained in step 2 was pre-incubated in a 37° C. water bath for 3 minutes; then 40 μL of NADPH generating system (containing NADP+: 6.5 mM, glucose 6-phosphate: 16.5 mM, MgCl2: 16.5 mM, glucose 6-phosphate dehydrogenase: 2 U/ml) was added to initiate the reaction. The reaction system was incubated in a 37° C. water bath for 1 hour.
4. After the reaction was carried out for 1 hour, the centrifuge tube was removed from the water bath, and the reaction was terminated by adding 400 μL of acetonitrile, followed by vortexing for 3 minutes. […]
6. After 60 minutes of incubation, the percentage of remaining drug in the incubation system was calculated as follows: Remaining Drug (%)=Cr/C0×100%
(In general: Liver microsomes are vesicles of endoplasmic reticulum, rich in cytochrome P450 enzymes.)

The next data set addresses hERG (Homo sapiens, UniProt Q12809). As to the kind of experiment: hERG binding assay (Dofetillide method). As to conditions: read-out: IC50 for hERG inhibition. From the text: The IC50 value of a compound for hERG inhibition can be determined according to the method described in the patent application US20050214870 A1.

Sequence of hERG (Q12809 whole entry): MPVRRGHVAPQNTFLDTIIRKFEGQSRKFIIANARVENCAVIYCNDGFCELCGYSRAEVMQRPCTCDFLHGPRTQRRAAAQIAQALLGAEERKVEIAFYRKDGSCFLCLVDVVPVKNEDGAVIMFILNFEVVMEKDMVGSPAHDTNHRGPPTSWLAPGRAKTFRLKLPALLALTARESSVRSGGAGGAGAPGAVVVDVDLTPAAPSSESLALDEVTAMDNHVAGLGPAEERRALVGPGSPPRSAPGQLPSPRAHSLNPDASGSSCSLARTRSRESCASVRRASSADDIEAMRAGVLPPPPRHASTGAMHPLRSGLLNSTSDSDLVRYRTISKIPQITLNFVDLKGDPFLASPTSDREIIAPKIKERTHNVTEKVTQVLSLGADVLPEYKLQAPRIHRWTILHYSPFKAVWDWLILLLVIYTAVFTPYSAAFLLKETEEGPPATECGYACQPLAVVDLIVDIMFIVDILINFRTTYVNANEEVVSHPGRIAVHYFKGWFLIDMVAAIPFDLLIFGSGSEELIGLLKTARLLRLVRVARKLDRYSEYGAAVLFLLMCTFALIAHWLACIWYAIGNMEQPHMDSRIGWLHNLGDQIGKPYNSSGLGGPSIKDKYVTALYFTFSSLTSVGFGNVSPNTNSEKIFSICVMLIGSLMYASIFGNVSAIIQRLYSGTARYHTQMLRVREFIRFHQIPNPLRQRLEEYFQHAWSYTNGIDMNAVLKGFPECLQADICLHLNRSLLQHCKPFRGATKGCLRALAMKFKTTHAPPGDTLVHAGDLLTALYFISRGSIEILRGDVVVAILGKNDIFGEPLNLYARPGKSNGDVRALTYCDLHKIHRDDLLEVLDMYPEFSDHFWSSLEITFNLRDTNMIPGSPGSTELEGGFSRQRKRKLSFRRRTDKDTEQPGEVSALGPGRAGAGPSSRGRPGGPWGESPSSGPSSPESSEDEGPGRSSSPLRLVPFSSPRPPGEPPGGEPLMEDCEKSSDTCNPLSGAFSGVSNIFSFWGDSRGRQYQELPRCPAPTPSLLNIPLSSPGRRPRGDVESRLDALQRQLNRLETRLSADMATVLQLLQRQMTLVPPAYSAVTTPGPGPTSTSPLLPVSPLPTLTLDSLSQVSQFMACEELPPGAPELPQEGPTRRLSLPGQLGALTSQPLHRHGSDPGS
Sequence of Recombinant Btk (Q06187 whole entry): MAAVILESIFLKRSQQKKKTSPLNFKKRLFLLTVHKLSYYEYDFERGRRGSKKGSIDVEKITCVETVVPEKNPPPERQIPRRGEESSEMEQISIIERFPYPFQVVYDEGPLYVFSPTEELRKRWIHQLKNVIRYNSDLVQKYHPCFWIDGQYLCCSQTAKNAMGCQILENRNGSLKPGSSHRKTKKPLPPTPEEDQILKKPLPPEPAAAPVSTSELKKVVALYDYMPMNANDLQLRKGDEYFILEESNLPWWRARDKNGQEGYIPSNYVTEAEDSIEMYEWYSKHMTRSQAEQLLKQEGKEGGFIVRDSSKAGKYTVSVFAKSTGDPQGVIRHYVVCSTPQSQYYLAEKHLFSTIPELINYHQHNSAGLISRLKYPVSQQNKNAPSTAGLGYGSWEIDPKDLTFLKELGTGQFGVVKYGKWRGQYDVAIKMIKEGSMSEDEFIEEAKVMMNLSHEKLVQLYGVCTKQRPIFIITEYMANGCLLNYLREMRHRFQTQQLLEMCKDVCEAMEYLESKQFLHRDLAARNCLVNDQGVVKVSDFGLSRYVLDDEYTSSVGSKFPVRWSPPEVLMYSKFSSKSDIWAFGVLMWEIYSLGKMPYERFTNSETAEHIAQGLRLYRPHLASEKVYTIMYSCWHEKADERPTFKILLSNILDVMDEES

Broadly, the IC50 is the concentration that inhibits the measured activity by half. In general, bioavailability refers to the share of a dose that reaches the circulation, judged against a reference dose that is usually intravenous. On to `N#CN1C[C@H](n2nc(-c3ccc(Oc4ccc(Cl)cn4)cc3)c(C(N)=O)c2N)CCC12CC2` [Compound I, (R)-5-amino-3-(4-((5-chloropyridin-2-yl)oxy)phenyl)-1-(4-cyano-4-azaspiro[2.5]oct-6-yl)-1H-pyrazole-4-carboxamide], for which the IC50 was under 10 nM in the data set on normal human B cells; under 200 nM in data set [1]; over 4000 nM with T cells; under 100 nM at Recombinant Btk; over 1000 nM at hERG. Besides, in data set [2], the “inhibition of TMD-8 tumor growth in vivo” value was “significantly inhibited the growth”. In the data set “Pharmacokinetics in rats”, this compound displayed a bioavailability of over 40%. The “inhibitory effect on various CYP enzymes” value in data set [3] was “very low or no inhibitory effect”. Also, the “Remaining Drug (%), residual percentage in liver microsomes” value in [4] is listed as over 30%.
